Measurements published in patent US20070270421A1, “Novel pyridine Derivative and Pyrimidine Derivative (1)” (priority 2004, published 2007).

What was measured:
[1] = tested on: Human gastric cancer cells (MKN-45); experiment: Inhibitory activity against the proliferation of human gastric cancer cells (MKN-45); type: cell-based; conditions: 72 h, MKN-45, 1% FBS RPMI1640, 3 days, Cell Counting Kit-8, read-out: IC50 (concentration necessary to inhibit the cell proliferation by 50%)
Protocol: Human gastric cancer cells (MKN-45) were suspended in a 1% FBS-containing RPMI1640 medium (purchased from Sigma). The cell suspension (1×10^4 cells/ml) was added in a 96-well plate for cell culture (purchased from NUNC, Production No. 167008) at 0.1 ml/well, and then cultured in a 5% CO2 incubator (37° C.) overnight. After the culture, each well was supplied with 0.1 ml of a test substance diluted with a 1% FBS-containing RPMI1640 medium, followed by culturing in a 5% CO2 incubator (37° C.) for 3 days. After the culture, each well was supplied with 10 μl of Cell Counting Kit-8 (purchased from DOJINDO, Production No. 343-07623), followed by incubation in a 5% CO2 incubator (37° C.) for about 1.5 hrs. After the incubation, using the Plate Reader MTP-500 (Corona Electric), the absorbance of each well was determined at a measurement wavelength of 450 nm and a reference wavelength of 660 nm. The ratio (%) of absorbance of each well supplied with a test substance to absorbance of the well supplied with no test substance was calculated, and the ratio was used to calculate the concentration (IC50) of the test substance necessary to inhibit the cell proliferation by 50%.

[2] = molecular target: T1, HGFR (His6-HGFR cytoplasmic domain) (Homo sapiens, UniProt P08581); experiment: Inhibitory activity against HGFR tyrosine kinase activity (HTRF); type: biochemical; conditions: biotin-poly(GT), ATP, 30° C. 10 min, read-out: IC50 (concentration necessary to inhibit HGFR kinase activity by 50%)
T1 construct: made in house; host or cells: Spodoptera frugiperda Sf9 insect cells (baculovirus, pFastBac-HT)
Procedure, shortened: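 Baculovirus/Sf9-expressed N-terminal His6-tagged HGFR cytoplasmic domain (from Lys974), Ni-NTA purified, phosphorylated biotin-poly(GT) in Hepes pH 7.4 with MgCl2/MnCl2. ATP added as 4 μM solution; 10 min at 30° C., stopped with EDTA. Phosphotyrosine product detected by HTRF.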

T1 sequence (P08581 956-1390 limits assumed): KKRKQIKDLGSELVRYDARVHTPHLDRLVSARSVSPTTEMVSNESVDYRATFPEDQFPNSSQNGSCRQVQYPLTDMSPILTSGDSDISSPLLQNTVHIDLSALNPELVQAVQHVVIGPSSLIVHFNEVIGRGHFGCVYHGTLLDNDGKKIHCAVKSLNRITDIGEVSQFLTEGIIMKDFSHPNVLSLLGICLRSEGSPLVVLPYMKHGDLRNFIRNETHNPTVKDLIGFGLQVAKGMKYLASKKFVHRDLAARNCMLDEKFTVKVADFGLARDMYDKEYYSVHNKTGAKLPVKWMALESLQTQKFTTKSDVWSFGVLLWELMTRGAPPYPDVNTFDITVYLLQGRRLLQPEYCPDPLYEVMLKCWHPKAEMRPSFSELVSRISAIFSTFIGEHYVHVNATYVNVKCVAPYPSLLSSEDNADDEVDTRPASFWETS

Q: With `O=C(CC(=O)Nc1ccc(Oc2ccnc(NC(=O)C3CC3)c2)cc1F)Nc1ccc(F)cc1` [Example 77, N-(4-Fluorophenyl)-N′-{4-[2-(cyclopropanecarbonylamino)pyridin-4-yloxy]-2-fluorophenyl}malonamide] as the compound, how does the IC50 [1] read?
A: Its IC50 is 110 nM.

Q: What about the IC50 [2] of the same compound?
A: The IC50 was 13 nM.

Q: What does the source list for `O=C(Cc1ccc(F)cc1)NC(=S)Nc1ccc(Oc2cc(NC(=O)N3CCCC3)ncn2)c(F)c1` [Example 3, Pyrrolidine-1-carboxylic acid [6-(2-fluoro-4-{3-[2-(4-fluorophenyl)acetyl]thioureido}phenoxy)pyrimidin-4-yl]amide]?
A: IC50 [1]: 40 nM; IC50 [2]: 71 nM

Q: How did the IC50 [1] turn out when `O=C(Cc1ccc(F)cc1)NC(=S)Nc1ccc(Oc2ccnc(NC(=O)N3CCCC3)c2)c(F)c1` [Example 13, 4-(2-Fluoro-4-{3-[2-(4-fluorophenyl)acetyl]thioureido}phenoxy)-2-[(pyrrolidin-1-yl)carbonylamino]pyridine] was run?
A: The IC50 was 23 nM.

Q: What about the IC50 [2] of the same compound?
A: Its IC50 is 110 nM.

Q: What does the source list for `CN1CCC(N(C)C(=O)Nc2cc(Oc3ccc(NC(=O)CC(=O)Nc4ccc(F)cc4)cc3F)ccn2)CC1` [Example 89, N-(3-Fluoro-4-{2-[3-methyl-3-(1-methylpiperidin-4-yl)ureido]pyridin-4-yloxy}phenyl)-N′-(4-fluorophenyl)malonamide]?
A: IC50 [1]: 86 nM; IC50 [2]: 38 nM

Q: Which IC50 [1] does the source give for `O=C(Cc1ccccc1)NC(=O)Nc1ccc(Oc2ccnc(NC(=O)N3CCCC3)c2)c(F)c1` [Example 43, 4-{2-Fluoro-4-[3-(2-phenylacetyl)ureido]phenoxy}-2-[(pyrrolidin-1-yl)carbonylamino]pyridine] here?
A: Its IC50 is 35 nM.

Q: And the IC50 [2]?
A: The IC50 was 83 nM.

Q: For `O=C(Cc1ccccc1)NC(=O)Nc1ccc(Oc2ccnc(NC(=O)N3CCC(N4CCCC4)CC3)c2)c(F)c1` [Example 45, 4-{2-Fluoro-4-[3-(2-phenylacetyl)ureido]phenoxy}-2-{[4-(pyrrolidin-1-yl)piperidin-1-yl]carbonylamino}pyridine], which IC50 [1] is on record?
A: The IC50 was 140 nM.

Q: What about the IC50 [2] of the same compound?
A: Its IC50 is 91 nM.

Q: For `CCN(CC)CCCN(C)C(=O)Nc1cc(Oc2ccc(NC(=S)NC(=O)Cc3ccc(F)cc3)cc2F)ccn1` [Example 22, 1-(3-Diethylaminopropyl)-3-[4-(2-fluoro-4-{3-[2-(4-fluorophenyl)acetyl]thioureido}phenoxy)pyridin-2-yl]-1-methylurea], which IC50 [1] is on record?
A: The IC50 was 33 nM.

Q: And the IC50 [2]?
A: The IC50 was 110 nM.

Q: Which results are given for `CN1CCCN(C(=O)Nc2cc(Oc3ccc(NC(=O)CC(=O)Nc4ccc(F)cc4)c(F)c3)ccn2)CC1` [Example 92, N-(2-Fluoro-4-{2-[(4-methyl-[1,4]diazepane-1-carbonyl)amino]pyridin-4-yloxy}phenyl)-N′-(4-fluorophenyl)malonamide]?
A: IC50 [1]: 570 nM; IC50 [2]: 78 nM

Q: What does the source list for `O=C(CC(=O)Nc1ccc(Oc2ccnc(NC(=O)N3CCCC3)c2)c(F)c1)Nc1ccc(F)cc1` [Example 56, N-(4-Fluorophenyl)-N′-(3-fluoro-4-{2-[(pyrrolidine-1-carbonyl)amino]pyridin-4-yloxy}phenyl)malonamide]?
A: IC50 [1]: 140 nM; IC50 [2]: 56 nM

Q: How did the IC50 [1] turn out when `Cc1cc(Oc2ccnc(NC(=O)N3CCC(N4CCCC4)CC3)c2)ccc1NC(=O)CC(=O)Nc1ccc(F)cc1` [Example 85, N-(4-Fluorophenyl)-N′-[2-methyl-4-(2-{[(4-pyrrolidin-1-yl)piperidine-1-carbonyl]amino}pyridin-4-yloxy)phenyl]malonamide] was run?
A: The IC50 was 630 nM.

Q: What about the IC50 [2] of the same compound?
A: The IC50 was 96 nM.

Q: How did the IC50 [1] turn out when `O=C(Cc1ccccc1)NC(=O)Nc1ccc(Oc2ccnc(NC(=O)N3CCOCC3)c2)c(F)c1` [Example 48, Morpholine-4-carboxylic acid {4-[2-fluoro-4-(3-phenylacetylureido)phenoxy]pyridin-2-yl}amide] was run?
A: The IC50 was 57 nM.

Q: What about the IC50 [2] of the same compound?
A: The IC50 was 56 nM.

Q: Which IC50 [1] does the source give for `O=C(CC(=O)Nc1ccc(Oc2ccnc(NC(=O)N3CCC(N4CCCC4)CC3)c2)cc1F)Nc1ccc(F)cc1` [Example 82, N-(4-Fluorophenyl)-N′-[2-fluoro-4-(2-{[4-(pyrrolidin-1-yl)piperidine-1-carbonyl]amino}pyridin-4-yloxy)phenyl]malonamide] here?
A: The IC50 was 120 nM.

Q: And the IC50 [2]?
A: Its IC50 is 66 nM.

Q: `CN1CCC(N(C)C(=O)Nc2cc(Oc3ccc(NC(=S)NC(=O)Cc4ccccc4)cc3F)ccn2)CC1` [Example 28, 3-{4-[2-Fluoro-4-(3-phenylacetylthioureido)phenoxy]pyridin-2-yl}-1-methyl-1-(1-methylpiperidin-4-yl)urea] was tested. Which IC50 [1] did it give?
A: The IC50 was 5.8 nM.

Q: What about the IC50 [2] of the same compound?
A: The IC50 was 75 nM.

Q: Which IC50 [1] does the source give for `O=C(Cc1ccccc1)NC(=S)Nc1ccc(Oc2ccnc(NC(=O)N3CCC(O)CC3)c2)c(F)c1` [Example 15, 4-{2-Fluoro-4-[3-(2-phenylacetyl)thioureido]phenoxy}-2-[(4-hydroxypiperidin-1-yl)carbonylamino]pyridine] here?
A: The IC50 was 48 nM.

Q: And the IC50 [2]?
A: Its IC50 is < 30 nM.

Q: Which IC50 [1] does the source give for `O=C(Cc1ccccc1)NC(=S)Nc1ccc(Oc2ccnc(NC(=O)N3CCOCC3)c2)c(Cl)c1` [Example 11, 4-{2-Chloro-4-[3-(2-phenylacetyl)thioureido]phenoxy}-2-[(morpholin-4-yl)carbonylamino]pyridine] here?
A: Its IC50 is 180 nM.

Q: What about the IC50 [2] of the same compound?
A: The IC50 was 88 nM.

Q: How did the IC50 [1] turn out when `Cc1cc(NC(=S)NC(=O)Cc2ccc(F)cc2)ccc1Oc1ccnc(NC(=O)N2CCOCC2)c1` [Example 24, Morpholine-4-carboxylic acid (4-{2-methyl-4-[3-(4-fluorophenyl)acetylthioureido]phenoxy}pyridin-2-yl)amide] was run?
A: Its IC50 is 180 nM.

Q: What about the IC50 [2] of the same compound?
A: Its IC50 is 54 nM.

Q: How did the IC50 [1] turn out when `CN1CCC(N(C)C(=O)Nc2cc(Oc3ccc(NC(=O)NC(=O)Cc4ccccc4)cc3F)ccn2)CC1` [Example 52, 3-{4-[2-Fluoro-4-(3-phenylacetylureido)phenoxy]pyridin-2-yl]-1-methyl-1-(1-methylpiperidin-4-yl)urea] was run?
A: Its IC50 is 63 nM.

Q: What about the IC50 [2] of the same compound?
A: The IC50 was 73 nM.

Q: `O=C(Cc1ccc(F)cc1)NC(=S)Nc1ccc(Oc2ccnc(NC(=O)N3CCCC3)c2)cc1` [Example 9, Pyrrolidine-1-carboxylic acid [4-(4-{3-[2-(4-fluorophenyl)acetyl]thioureido}phenoxy)pyridin-2-yl]amide] was tested. Which IC50 [1] did it give?
A: The IC50 was 33 nM.

Q: What about the IC50 [2] of the same compound?
A: Its IC50 is 53 nM.

Q: For `CN1CCN(C(=O)Nc2cc(Oc3ccc(NC(=O)NC(=O)Cc4ccccc4)cc3F)ccn2)CC1` [Example 50, 4-Methylpiperazine-1-carboxylic acid {4-[2-fluoro-4-(3-phenylacetylureido)phenoxy]pyridin-2-yl}amide], which IC50 [1] is on record?
A: Its IC50 is 160 nM.

Q: What about the IC50 [2] of the same compound?
A: The IC50 was 190 nM.

Q: `CN(C)C(=O)Nc1cc(Oc2ccc(NC(=O)NC(=O)Cc3ccccc3)cc2F)ccn1` [Example 44, 2-[(Dimethylamino)carbonylamino]-4-{2-fluoro-4-[3-(2-phenylacetyl)ureido]phenoxy}pyridine] was tested. Which IC50 [1] did it give?
A: The IC50 was 64 nM.

Q: And the IC50 [2]?
A: Its IC50 is 45 nM.

Q: For `CN(C)C(=O)Nc1cc(Oc2ccc(NC(=S)NC(=O)CC3CC4CCC3C4)cc2F)ccn1` (stereo not drawn) [Example 17, 2-[(Dimethylamino)carbonylamino]-4-{2-fluoro-4-[3-(2-norbornaneacetylthio)ureido]phenoxy}pyridine], which IC50 [1] is on record?
A: Its IC50 is 570 nM.

Q: What about the IC50 [2] of the same compound?
A: The IC50 was 64 nM.
